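Method: 48-hour compound exposure of cells in 96-well plates, five concentrations, linear interpolation of endpoints. At the TGI there is no net growth.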
Legend:
Experiment in all cases: NCI-60 cell line screen, 48 h
DU-145 prostate = system: DU-145 prostate
HCC-2998 colon = system: HCC-2998 colon
HCT-116 colon = system: HCT-116 colon
HCT-15 colon = system: HCT-15 colon
MDA-MB-231 breast = system: MDA-MB-231 breast
MDA-MB-435 = system: MDA-MB-435
MDA-N = system: MDA-N
MOLT-4 leukemia = system: MOLT-4 leukemia
NCI-H23 lung = system: NCI-H23 lung
NCI-H460 lung = system: NCI-H460 lung
NCI-H522 lung = system: NCI-H522 lung
NCI/ADR-RES ovarian = system: NCI/ADR-RES ovarian
OVCAR-3 ovarian = system: OVCAR-3 ovarian
SF-268 CNS = system: SF-268 CNS
SF-539 CNS = system: SF-539 CNS
SK-MEL-28 melanoma = system: SK-MEL-28 melanoma
SK-OV-3 ovarian = system: SK-OV-3 ovarian
SW-620 colon = system: SW-620 colon
T-47D breast = system: T-47D breast
EKVX NSCLC = system: EKVX NSCLC

SMILES | TGI (DU-145 prostate) [µM] | TGI (HCC-2998 colon) [µM] | TGI (HCT-116 colon) [µM] | TGI (HCT-15 colon) [µM] | TGI (MDA-MB-231 breast) [µM] | TGI (MDA-MB-435) [µM] | TGI (MDA-N) [µM] | TGI (MOLT-4 leukemia) [µM] | TGI (NCI-H23 lung) [µM] | TGI (NCI-H460 lung) [µM] | TGI (NCI-H522 lung) [µM] | TGI (NCI/ADR-RES ovarian) [µM] | TGI (OVCAR-3 ovarian) [µM] | TGI (SF-268 CNS) [µM] | TGI (SF-539 CNS) [µM] | TGI (SK-MEL-28 melanoma) [µM] | TGI (SK-OV-3 ovarian) [µM] | TGI (SW-620 colon) [µM] | TGI (T-47D breast) [µM] | TGI (EKVX NSCLC) [µM]
NCCCc1ccc2oc3ccccc3c2c1 | 30.6 | 22.5 | 29.7 | 36.4 | 33 | 29.1 | 29.6 | 30.5 | 41.8 | 34.1 | 40 | 46.3 | 31.5 | 39.1 | 36.9 | 32.9 | 31.3 | 50.3 | 33.7 | –
Cc1cc(C2(c3cc(C)c(O)c(C(=O)O)c3)OS(=O)(=O)c3ccccc32)cc(C(=O)O)c1O | > 100 | – | > 100 | > 100 | > 100 | > 100 | > 100 | > 100 | – | > 100 | > 100 | > 100 | > 100 | > 100 | > 100 | > 100 | > 100 | > 100 | > 100 | > 100
CC(C)(C)OC(=O)CN1CCNCCN(CC(=O)OC(C)(C)C)CC1 | > 100 | > 100 | > 100 | > 100 | > 100 | – | > 100 | > 100 | – | > 100 | > 100 | > 100 | > 100 | – | > 100 | – | > 100 | – | > 100 | > 100
CN(C)C(=C1c2cc([N+](=O)[O-])ccc2-c2ccc([N+](=O)[O-])cc21)N(C)C | > 100 | > 100 | > 100 | > 100 | > 100 | > 100 | > 100 | > 100 | > 100 | – | > 100 | > 100 | > 100 | > 100 | – | > 100 | > 100 | > 100 | > 100 | > 100
Cc1cc(C)c(C)c(-n2[nH]c(=O)n(C)c2=O)c1C | > 100 | – | > 100 | > 100 | > 100 | > 100 | > 100 | > 100 | > 100 | > 100 | – | > 100 | > 100 | > 100 | > 100 | > 100 | > 100 | > 100 | > 100 | > 100
Cn1c(COC(=O)NC2CCCCC2)c(COC(=O)NC2CCCCC2)c2ccc3cc(Cl)c(Cl)cc3c21 | 84.7 | 26.6 | 23.1 | 24.7 | 22.1 | 49.4 | 25.4 | 54.4 | 40.5 | 17.3 | – | > 100 | 29.9 | 24.5 | 42.1 | 50.2 | > 100 | 32.8 | 22.4 | > 100
COc1ccc(/C=C(\NC(=O)c2ccccc2)C(=O)NN(C)c2ccnc3cc(Cl)ccc23)cc1OC | 66.3 | – | > 100 | 55.4 | 60.3 | 49.6 | 65.7 | 47.7 | 62.8 | 39.3 | 44.1 | 43.8 | 69.7 | 35.4 | 46.5 | 58.1 | > 100 | 51.3 | > 100 | > 100
O=C1N[C@@H]([C@H](CCCCCO)OC(=O)c2ccccc2)CO1 | > 100 | – | > 100 | > 100 | > 100 | > 100 | > 100 | > 100 | – | > 100 | – | > 100 | > 100 | – | > 100 | > 100 | > 100 | > 100 | > 100 | > 100
CN1CN(c2ccccc2)C2(CCN(CCCC(=O)c3cccs3)CC2)C1=O | > 100 | 38.9 | > 100 | > 100 | > 100 | – | > 100 | > 100 | > 100 | – | > 100 | > 100 | > 100 | > 100 | 64 | > 100 | > 100 | > 100 | > 100 | 80.9
N#Cc1c2c([nH]c(=O)c1C#N)CCCC2 | > 100 | > 100 | > 100 | > 100 | > 100 | > 100 | > 100 | > 100 | > 100 | > 100 | – | > 100 | > 100 | > 100 | > 100 | > 100 | > 100 | > 100 | > 100 | > 100
Cc1ccc(-c2n[nH]c(=O)[nH]2)cc1 | > 100 | > 100 | > 100 | > 100 | > 100 | > 100 | > 100 | > 100 | > 100 | > 100 | > 100 | > 100 | > 100 | > 100 | > 100 | > 100 | – | > 100 | > 46.4 | > 100
NC(N)=NC(N)=Nc1c(F)c(F)c(F)c(F)c1F | > 100 | – | > 100 | > 100 | > 100 | > 100 | > 100 | – | > 100 | > 100 | > 100 | > 100 | > 100 | > 100 | > 100 | > 100 | > 100 | > 100 | > 100 | > 100
O=C1C(=O)N(C2CCCCC2)C(=S)N1C1CCCCC1 | > 100 | > 100 | > 100 | > 100 | > 100 | > 100 | > 100 | > 100 | > 100 | > 100 | > 100 | > 100 | – | > 100 | > 100 | > 100 | > 100 | > 100 | > 100 | > 100
COC1OC(COC(=O)NCCCCC(=O)C(F)(F)F)C(O)C(O)C1O (configuration not stated) | > 100 | > 100 | > 100 | > 100 | > 100 | > 100 | > 100 | > 100 | > 100 | > 100 | – | > 100 | > 100 | > 100 | > 100 | > 100 | > 100 | > 100 | > 100 | –
COc1ccc(C2NC3=C(CCCC3)C3(C#N)C(=O)N=C(N)C23C#N)cc1 (configuration not stated) | > 100 | > 100 | > 100 | > 100 | > 100 | > 100 | > 100 | > 100 | > 100 | > 100 | > 100 | > 100 | – | > 100 | – | > 100 | > 100 | > 100 | > 100 | > 100
CN(C)Cc1cc(N=Nc2ccccc2Cl)cc(CN(C)C)c1O | > 100 | > 100 | > 100 | > 100 | > 100 | > 100 | 79.3 | > 100 | > 100 | > 100 | 28.8 | > 100 | > 100 | > 100 | > 100 | 33.6 | – | > 100 | > 100 | > 100
O=C(NCCNCCO)N/N=C/c1ccc([N+](=O)[O-])cc1 | > 100 | > 100 | > 100 | > 100 | > 100 | > 100 | > 100 | > 100 | > 100 | > 100 | > 100 | > 100 | > 100 | > 100 | > 100 | > 100 | > 100 | > 100 | > 100 | –
Cc1c2cnccc2nc2[nH]c3ccncc3c12 | > 100 | – | – | 28.8 | > 100 | 27.6 | 43.2 | > 100 | 6.9 | 6.06 | 18.5 | – | 42.4 | 7.62 | > 100 | > 100 | > 100 | 65.8 | > 100 | 96.9
CCOC(=O)COc1ccc(/C=C/C(=O)c2ccc(OC)cc2)cc1 | 76.8 | 48.7 | 57.7 | 77.3 | 88.3 | 62.9 | 75.1 | > 100 | 79.8 | – | 73.6 | > 100 | > 100 | 82.7 | 41.5 | 58.4 | – | 61.6 | > 100 | > 100
COc1ccc(-c2c(C#N)c(S)n(C3OC(CO)C(O)C(O)C3O)c(=O)c2C#N)cc1 (configuration not stated) | > 100 | > 100 | – | > 100 | > 100 | > 100 | > 100 | > 100 | > 100 | > 100 | > 100 | > 100 | > 100 | > 100 | > 100 | > 100 | > 100 | > 100 | > 100 | –
